From patent US9921212B2, “Preventive and therapeutic drug for cartilaginous hyperplasia and method of screening for the same” (KYOTO UNIVERSITY, priority 2014, dated 2018)

Experiments:
human SOX9 promoter = human SOX9 promoter luciferase reporter activity in chondroprogenitor cells; format: cell-based; conditions: mutant-type chondroprogenitor cells, 10 μM, 24 hours
Text: In order to examine SOX9 regulation, human SOX9 promoter activity in chondroprogenitor cells was confirmed. A reporter construct prepared by inserting a −927- to +84-bp human SOX9 promoter region (transcription start site: 0) into a pGL3-luciferase reporter plasmid (Promega) in accordance with Ushita M et al., Osteoarthritis and cartilage/OARS, Osteoarthritis Research Society. 2009; 17(8): 1065-75 was used for confirmation (FIG. 7A and Table 2). Chondroprogenitor cells obtained by the above method were seeded on a 6-well plate (50000 cells/well). A FuGENE 6 transfection reagent was used for transfection (2 μg DNA/well). Twenty four hours later, luciferase activity was determined using a Dual-Luciferase Reporter Assay Kit (Promega) and a Centro XS^3 LB 960 Microplate Luminometer (BERTHOLD) for calculation of promoter activity. […] Next, in order to identify mutation of a site responsible for NLRP3-dependent responsiveness, reporter constructs each having a mutation in an NFAT-binding sequence, an AP-1-binding sequence, an NF-κB-binding sequence, an Sp1-binding sequence, or an CREB/ATF-binding sequence were prepared as listed in Table 3. These mutated reporter constructs were transfected into chondroprogenitor cells in the above manner to confirm promoter activity. […]

[1] = system: mutant-type chondroprogenitor cells; experiment: 3D pellet culture, size of cartilaginous pellets (Alcian Blue stained area), mutant-type; format: cell-based, human; conditions: added during 3D pellet culture
Description: Chondroprogenitor cells obtained by the above method were cultured in a cartilage induction medium containing 5 ng/mL FGF2 and 10 ng/ml TGFβ3 for 3 days. Then, 2.5×10^5 cells were centrifuged to form a pellet, followed by culture in a cartilage induction medium containing 0.5 ml of 40 ng/ml PDGF-BB and 1% FCS, as in the case of 2D micromass culture. Six days later, 10 ng/ml TGFβ3 was further added for culture. Ten days later, PDGF-BB was substituted with 50 ng/ml BMP4 (WAKO). 3D pellet culture was mained at 37° C. in 5% CO2 for 28 days.
In order to examine the chondrocytes induced via 2D micromass culture and those induced via 3D pellet culture, the cells obtained by 2D micromass culture were fixed with 4% paraformaldehyde (PFA) for 1 hour and stained with 1% Alcian Blue (pH 1.0) (Sigma-Aldrich), and the cells obtained by 3D pellet culture were fixed with 4% paraformaldehyde (PFA) for 1 hour and stained with 0.1% Alcian Blue (pH 1.0) (Sigma-Aldrich). Further, immunostaining was carried out using an anti-COL2 antibody (Thermo Scientific). Alcian blue is a reagent for detecting an extracellular matrix secreted by chondrocytes, and COL2 is a gene that is expressed in a chondrocyte-specific manner.
Further, the influence of adenylate cyclase was examined with the addition of forskolin and SQ22536 during 3D pellet culture. […]

SOX9 [2] = experiment: 2D micromass culture with inhibitor added, SOX9 expression; format: cell-based, human; conditions: 10 μM or 1 μg/mL
Description: (§1) Chondroprogenitor cells (1.5×10^5 cells) obtained via the above method were suspended in a cartilage induction medium containing 40 ng/ml PDGF-BB and 1% FCS and the suspension was spotted in the form of […] drops on a fibronectin-coated 24-well plate (BD), followed by culture. In this case, the medium was replaced every three days. Six days later, 10 ng/ml TGFβ3 was further added for culture. Ten days after the start of 2D micromass culture, PDGF-BB was substituted with 50 ng/ml BMP4 (WAKO). 2D micromass culture was performed at 37° C. in 5% CO2 for 14 days.
(§2) mRNA was isolated from each cell using an RNeasy Mini Kit (Qiagen). cDNA was synthesized via reverse transcription using 1 μg of the obtained total RNA as a template and a Superscript III reverse transcriptase (Invitrogen). A standard curve for quantitative real-time PCR was created to conduct analysis. Real-time PCR analysis was conducted using a Power SYBR Green qPCR mastermix (Invitrogen) and a StepOne real-time PCR system (ABI) for quantitative determination.
Further, 2D micromass culture was performed with the addition of 10 μM or 1 μg/mL Ac-YVAD-CHO. As a result, there was no influence in cartilaginous hyperplasia (FIGS. 6A, 6B, 6D, 6E, 6F, and 6H) or SOX9 expression (FIGS. 6C and 6G).

[3] = system: mutant-type iPSC-derived chondrocytes; experiment: 2D micromass culture with inhibitor added, cartilaginous hyperplasia (pellet size, GAG); format: cell-based, human; conditions: 10 μM or 1 μg/mL
Description: as §1
Subsequently, quantitative analysis of the amount of DNA and the glycosaminoglycan production amount after chondrocyte differentiation was conducted. The amount of DNA was determined using a Pico Green dsDNA Quantitation kit (Invitrogen) in the manner described in Nasu A, et al., PloS one. 8(1): e53771 (2013). The extracellular matrix production amount was determined using Blyscan glycosaminoglycan Assay (Biocolor) in accordance with the manufacturer's protocol. As a result, no difference in the amount of DNA in chondrocytes was found between wild-type iPSC-derived cartilage tissue and mutant-type iPSC-derived cartilage tissue in both cases of 2D micromass culture and 3D pellet culture (FIGS. 3B and 3C). […]

SOX9 [4] = experiment: mRNA expression of SOX9 in chondroprogenitor cells with forskolin and SQ22536 added; format: cell-based, human; conditions: wild-type and mutant-type chondroprogenitor cells
Description: as §2
In order to examine whether or not the […] signal transduction pathway is involved in cartilaginous hyperplasia, analysis was conducted using forskolin, which is an adenylate cyclase activator, and SQ22536, which is an adenylate cyclase inhibitor. This test was conducted by introducing a human SOX9 promoter into chondroprogenitor cells, immediately treating the cells with 10 μM forskolin (CALBIOCHEM) or 10 μM SQ22536 (Sigma-Aldrich), and incubating cells for 24 hours so as to determine luciferase activity. As a result, the SOX9 promoter activity in mutant-type chondroprogenitor cells treated with forskolin increased to a level 2.3 times that of mutant-type chondroprogenitor cells (control) treated with a base (DMSO) (FIG. 7D). Meanwhile, the SOX9 promoter activity in mutant-type chondroprogenitor cells treated with SQ22536 decreased to a level half that in the control (FIG. 7D).

With `C=C[C@@]1(C)CC(=O)[C@]2(O)[C@@]3(C)[C@@H](O)CCC(C)(C)[C@@H]3[C@H](O)[C@H](OC(C)=O)[C@@]2(C)O1` [forskolin] the “SOX9 promoter activity, increase relative to control treated with a base (DMSO)” value (human SOX9 promoter) was 2.3 times and the “size, increase relative to control treated with a base (DMSO)” value [1] was 2.0 times.
For Ac-YVAD-CHO, the “influence in SOX9 expression” value (SOX9 [2]) was “no influence” and the “influence in cartilaginous hyperplasia” value [3] was “no influence”.
In the case of `Nc1ncnc2c1ncn2C1CCCO1` (stereo not shown) [SQ22536, 9-(tetrahydro-2-furanyl)-adenine], the “SOX9 promoter activity, decrease relative to control treated with a base (DMSO)” value (human SOX9 promoter) is reported as “half”, the “effect on mRNA expression of SOX9, relation to SOX9 promoter activity data” value (SOX9 [4]) is reported as “correlated” and the “size, decrease relative to control treated with a base (DMSO)” value [1] is reported as 2.1 times less.
